“Also recorded” adds a separate entry of the source.

In experiment [1] the test system is renin expression in CNT cells. Description: Renin expression in CNT cells by quantitative histology (renin immunostaining) after sodium diet and diuretics. The experiment is classed as in vivo, C57BL6 mice. The method, then:
(§1) 3. Animal experiments and measurements. C57BL6 mice were used following IRB approved protocols. Twenty-four hours prior to dietary sodium manipulations, all animals were fasted with free access to water, supplemented with 2% glucose and 0.1% KCl. Either one mg/kg amiloride and 2 mg/kg furosemide (52) or control carrier were applied by subcutaneous injection. Low sodium (0.3% sodium) and high sodium (6%) diets were purchased from Purina Mills (Purina Mills Inc., St. Louis, Mo.). Blood was collected by cardiac puncture. Spot urine was collected by bladder puncture. Hemidissected kidneys were formalin-fixed or snap-frozen in liquid nitrogen. For urine collection, mice were placed in metabolic cages (Nalgene, Nalge Nunc International, Rochester, N.Y.). Urine specimens were collected at 12 h intervals in tubes containing AEBSF and 8-hydroxyquinoline (NEN-DuPont, Boston, Mass.). Weight and urine volumes were recorded daily. Urinary Ang and A-I measurements were corrected for creatinine or expressed as total urinary Ang. RNA isolation and RT-PCR were performed following standard protocols (QIAGEN, Valencia, Calif.). […]
5. […] The biotinylated secondary antibody was detected using streptavidin conjugated with horseradish peroxidase or alkaline phosphatase and visualized with either 3-amino-9-ethyl-carbazole (AEC; Sigma) or NBT/BCIP, respectively. […]
6. Quantitative histology. Renin expression in renal tubular cells as a function of sodium diet, or diuretics, was assayed by quantitating the frequency of renin immunostaining in segments of the distal nephron using the peroxidase reporter enzyme and AEC chromogen. Two independent blinded investigators scored sagittal kidney for renin using a subjective 0-4 scale: 0 equaled no tubular renin staining; 1 equaled at least one positive cell per tubule segment; 2 equaled between 25-50% of cells per of tubule segment; 3 equaled more than 50% of cells per tubule segment stained for renin; 4 equaled >75%. […] Results were analyzed by comparing the mean±S.E.M. between groups using unpaired t-tests. p<0.05 was considered significant. […]

The test system of experiment [2] is renin expression in JGA. The experiment is described as follows: JGA renin expression by semiquantitative RT-PCR of total kidney RNA. The experiment is classed as in vivo, C57BL6 mice. Particulars: overnight. The method, then:
as §1, with “Ang.” for “Ang. RNA isolation and RT-PCR were performed following standard protocols (QIAGEN, Valencia, Calif.).”
On the basis of immunostaining and expression studies, we conclude that, in addition to its major site of expression in JGA, renin is also expressed in connecting tubule. […] Renin expression in CNT cells was assessed by quantitative histology (frequency of CNT cells staining for renin). […] Manipulation of dietary sodium was monitored by measuring total sodium excretion. […]

With `NS(=O)(=O)c1cc(C(=O)O)c(NCc2ccco2)cc1Cl` [furosemide], in experiment [1] (sodium restriction plus furosemide (2 mg/kg, subcutaneous), overnight, vs sodium restriction alone), the “renin expression in CNT” value is “decreased”. The JGA renin entry in experiment [2] (sodium restriction plus furosemide (2 mg/kg, subcutaneous), vs sodium restriction alone) is on record as “without additional effects”.
Take `N=C(N)NC(=O)c1nc(Cl)c(N)nc1N` [amiloride]: the “renin expression in distal nephron” value in experiment [1] (blocking the sodium channel of principal cells (summary statement)) is recorded as “up-regulation”. Further, in experiment [1] (high sodium diet plus amiloride (one mg/kg, subcutaneous), overnight, vs high sodium alone), the CNT immunoreactive renin entry is reported as “increased; also recorded: marked increase”. The JGA renin result in experiment [2] (high sodium diet plus amiloride (one mg/kg, subcutaneous), p<0.05) is on record as “significantly decreased”.
